Source: patent US10392368B2, “Pyrazolo and triazolo bicyclic compounds as JAK kinase inhibitors” (THERAVANCE BIOPHARMA R&D IP, LLC, priority 2017, dated 2019)
Where two headings read alike, the source gives them in different places.

What was measured:
JAK1 = biological target: T1, JAK1 (Homo sapiens, UniProt P23458); assay: Biochemical JAK1 kinase assay (LanthaScreen); details: for Ki: read-out: JAK 1 (pKi) (converted)
T1 construct: GST; purchased Life Technologies
Procedure, shortened: (§1)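 GST-tagged JAK enzyme and GFP-STAT1 peptide preincubated with compound 1 h, then ATP added; 1 h kinase reaction at ambient temperature, pH 7.5 HEPES/MgCl2 buffer, 1% DMSO. Tb-anti-pSTAT1 (pTyr701) TR-FRET, 520/495 nm ratio; IC50 from 4-parameter fit, converted to pKi via Cheng-Prusoff.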

JAK2 = biological target: T2, JAK2 (Homo sapiens, UniProt O60674); assay: Biochemical JAK2 kinase assay (LanthaScreen); details: for Ki: read-out: JAK 2 (pKi) (converted)
T2 construct: GST; purchased Life Technologies
Procedure, shortened: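 GST-tagged recombinant JAK2 pre-incubated 1 h at ambient temperature with compound and GFP-STAT1 peptide in HEPES pH 7.5/MgCl2 buffer, then ATP added for a 1 h reaction with 1% DMSO. TR-FRET read after EDTA and Tb-anti-pSTAT1 (pTyr701) addition; IC50 from 4-parameter fit, converted to pKi by Cheng-Prusoff.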

Tyk2 = biological target: T3, Tyk2 (Homo sapiens, UniProt P29597); assay: Biochemical Tyk2 kinase assay (LanthaScreen); details: for Ki: read-out: Tyk 2 (pKi) (converted)
T3 construct: GST; purchased Life Technologies
Procedure, shortened: as §1

[1] = test system: IL-2 stimulated pSTAT5 in Tall-1 T cells; assay: Cellular JAK3 potency assay: inhibition of IL-2 stimulated pSTAT5 in Tall-1 T cells; type: cell-based, human; details: for IC50: Homo sapiens, read-out: Tall-1 (pIC50) (converted)
Procedure, shortened: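 Tall-1 human T cells (45,000/well) in phenol red-free DMEM with 10% FBS were preincubated with compound 1 h at 37 °C, then stimulated with IL-2 (final 300 ng/ml) for 30 min. Lysate pSTAT5 read by AlphaLisa; IC50 from inhibition curves, reported as pIC50 (mean±SD).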

JAK3 = biological target: T4, JAK3 (Homo sapiens, UniProt P52333); assay: Biochemical JAK3 kinase assay (LanthaScreen); set-up: GST; purchased Life Technologies; details: for Ki: read-out: JAK 3 (pKi) (converted)
T4 sequence (P52333 1-1124): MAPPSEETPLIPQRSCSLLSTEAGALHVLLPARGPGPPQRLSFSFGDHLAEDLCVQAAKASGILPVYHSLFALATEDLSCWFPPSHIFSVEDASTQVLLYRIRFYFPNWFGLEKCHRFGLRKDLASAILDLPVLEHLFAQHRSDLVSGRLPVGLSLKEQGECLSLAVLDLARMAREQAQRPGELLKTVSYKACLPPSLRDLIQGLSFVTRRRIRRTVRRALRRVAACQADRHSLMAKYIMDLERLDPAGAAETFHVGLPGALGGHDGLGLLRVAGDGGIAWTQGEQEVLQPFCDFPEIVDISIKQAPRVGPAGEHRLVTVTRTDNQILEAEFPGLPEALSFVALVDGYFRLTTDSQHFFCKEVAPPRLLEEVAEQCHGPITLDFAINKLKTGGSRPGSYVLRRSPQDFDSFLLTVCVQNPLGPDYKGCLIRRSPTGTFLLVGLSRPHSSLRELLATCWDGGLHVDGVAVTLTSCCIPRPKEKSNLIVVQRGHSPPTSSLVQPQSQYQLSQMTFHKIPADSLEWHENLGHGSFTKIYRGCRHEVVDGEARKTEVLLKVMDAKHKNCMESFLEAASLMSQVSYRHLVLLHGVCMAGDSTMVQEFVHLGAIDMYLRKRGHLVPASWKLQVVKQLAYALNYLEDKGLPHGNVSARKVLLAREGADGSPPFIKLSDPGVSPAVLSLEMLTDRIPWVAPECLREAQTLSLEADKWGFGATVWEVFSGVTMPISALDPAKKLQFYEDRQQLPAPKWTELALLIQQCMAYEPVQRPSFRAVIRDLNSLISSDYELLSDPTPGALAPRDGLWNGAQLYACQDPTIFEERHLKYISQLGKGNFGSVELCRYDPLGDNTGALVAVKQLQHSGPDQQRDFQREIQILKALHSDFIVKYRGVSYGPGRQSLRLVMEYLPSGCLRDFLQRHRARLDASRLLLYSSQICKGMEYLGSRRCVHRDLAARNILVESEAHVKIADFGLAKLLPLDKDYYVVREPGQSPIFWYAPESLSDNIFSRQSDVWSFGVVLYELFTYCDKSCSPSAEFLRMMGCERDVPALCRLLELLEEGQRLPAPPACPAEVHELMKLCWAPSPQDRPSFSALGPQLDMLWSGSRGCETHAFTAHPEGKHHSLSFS
Procedure, shortened: as §1

[2] = IL-2 stimulated pSTAT5, Tall-1 T cells
[3] = selectivity JAK3 over JAK1, difference of pKi
[4] = TALL-1, IL-2 stimulated pSTAT5 in Tall-1 T cells
[5] = selectivity: difference of pKi JAK3 and pKi JAK1
[6] = TALL-1, IL-2 stimulated pSTAT5, Tall-1 T cells
[7] = IL-2 stimulated pSTAT5 in Tall-1 T cells

T1 sequence (P23458 whole entry): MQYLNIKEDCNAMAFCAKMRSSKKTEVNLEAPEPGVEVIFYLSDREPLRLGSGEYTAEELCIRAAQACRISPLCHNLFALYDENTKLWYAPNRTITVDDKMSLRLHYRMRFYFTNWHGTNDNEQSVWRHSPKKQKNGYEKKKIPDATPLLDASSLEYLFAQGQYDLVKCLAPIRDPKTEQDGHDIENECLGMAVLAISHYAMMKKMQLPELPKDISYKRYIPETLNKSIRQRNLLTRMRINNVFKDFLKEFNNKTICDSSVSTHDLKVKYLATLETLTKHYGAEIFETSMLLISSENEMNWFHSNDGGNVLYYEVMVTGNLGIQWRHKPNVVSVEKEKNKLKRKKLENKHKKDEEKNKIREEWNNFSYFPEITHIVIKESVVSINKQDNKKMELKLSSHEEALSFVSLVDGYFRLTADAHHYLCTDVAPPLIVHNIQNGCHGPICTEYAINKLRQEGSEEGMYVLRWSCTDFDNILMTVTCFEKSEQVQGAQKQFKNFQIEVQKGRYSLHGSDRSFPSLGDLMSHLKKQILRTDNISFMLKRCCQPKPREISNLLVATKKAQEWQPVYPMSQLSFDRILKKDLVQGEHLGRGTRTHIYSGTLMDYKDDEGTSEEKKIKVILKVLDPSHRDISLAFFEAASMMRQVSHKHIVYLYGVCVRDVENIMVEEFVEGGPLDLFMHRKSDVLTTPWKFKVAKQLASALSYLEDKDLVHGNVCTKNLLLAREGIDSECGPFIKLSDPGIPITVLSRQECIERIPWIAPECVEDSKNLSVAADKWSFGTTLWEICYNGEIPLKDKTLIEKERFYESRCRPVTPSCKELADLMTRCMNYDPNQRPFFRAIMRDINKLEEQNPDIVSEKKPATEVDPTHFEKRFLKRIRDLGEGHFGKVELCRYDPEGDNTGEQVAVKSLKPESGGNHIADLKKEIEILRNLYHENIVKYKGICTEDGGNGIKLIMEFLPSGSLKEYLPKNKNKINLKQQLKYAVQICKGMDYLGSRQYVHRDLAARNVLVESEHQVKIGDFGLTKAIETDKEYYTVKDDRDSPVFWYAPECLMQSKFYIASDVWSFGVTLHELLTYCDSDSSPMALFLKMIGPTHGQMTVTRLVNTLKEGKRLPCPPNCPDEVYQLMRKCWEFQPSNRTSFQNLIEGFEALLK
T3 sequence (P29597 whole entry): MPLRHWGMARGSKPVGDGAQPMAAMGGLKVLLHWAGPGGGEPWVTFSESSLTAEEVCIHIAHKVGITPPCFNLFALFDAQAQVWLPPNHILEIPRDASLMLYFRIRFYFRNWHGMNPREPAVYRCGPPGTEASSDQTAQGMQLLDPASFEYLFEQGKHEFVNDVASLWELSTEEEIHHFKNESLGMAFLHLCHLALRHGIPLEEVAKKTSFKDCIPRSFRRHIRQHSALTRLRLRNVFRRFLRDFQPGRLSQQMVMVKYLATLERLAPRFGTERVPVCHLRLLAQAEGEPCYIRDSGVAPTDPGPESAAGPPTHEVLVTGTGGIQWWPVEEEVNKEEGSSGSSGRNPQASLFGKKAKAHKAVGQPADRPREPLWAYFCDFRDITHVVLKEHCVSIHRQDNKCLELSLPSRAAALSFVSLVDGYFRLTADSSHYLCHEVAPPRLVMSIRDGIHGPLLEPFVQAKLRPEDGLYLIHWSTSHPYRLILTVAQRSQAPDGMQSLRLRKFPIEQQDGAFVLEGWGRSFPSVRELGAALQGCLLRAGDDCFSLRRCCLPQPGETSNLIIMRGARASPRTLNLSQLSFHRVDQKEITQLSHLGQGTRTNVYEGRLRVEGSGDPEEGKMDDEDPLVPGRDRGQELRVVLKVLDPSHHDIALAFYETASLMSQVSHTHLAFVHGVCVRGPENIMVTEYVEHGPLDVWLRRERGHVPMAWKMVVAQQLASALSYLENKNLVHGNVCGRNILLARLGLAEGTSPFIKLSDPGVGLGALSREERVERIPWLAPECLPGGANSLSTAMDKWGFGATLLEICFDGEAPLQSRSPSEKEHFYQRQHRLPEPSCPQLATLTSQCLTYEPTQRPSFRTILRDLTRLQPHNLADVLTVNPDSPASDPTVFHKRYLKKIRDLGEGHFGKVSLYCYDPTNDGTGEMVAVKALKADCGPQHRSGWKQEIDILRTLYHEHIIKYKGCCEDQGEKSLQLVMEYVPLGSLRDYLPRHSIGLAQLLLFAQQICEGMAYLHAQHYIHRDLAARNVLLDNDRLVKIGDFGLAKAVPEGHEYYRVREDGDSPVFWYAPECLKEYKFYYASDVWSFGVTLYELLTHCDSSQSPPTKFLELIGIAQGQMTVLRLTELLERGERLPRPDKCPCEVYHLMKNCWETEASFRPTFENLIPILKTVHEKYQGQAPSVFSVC
T2 sequence (O60674 whole entry): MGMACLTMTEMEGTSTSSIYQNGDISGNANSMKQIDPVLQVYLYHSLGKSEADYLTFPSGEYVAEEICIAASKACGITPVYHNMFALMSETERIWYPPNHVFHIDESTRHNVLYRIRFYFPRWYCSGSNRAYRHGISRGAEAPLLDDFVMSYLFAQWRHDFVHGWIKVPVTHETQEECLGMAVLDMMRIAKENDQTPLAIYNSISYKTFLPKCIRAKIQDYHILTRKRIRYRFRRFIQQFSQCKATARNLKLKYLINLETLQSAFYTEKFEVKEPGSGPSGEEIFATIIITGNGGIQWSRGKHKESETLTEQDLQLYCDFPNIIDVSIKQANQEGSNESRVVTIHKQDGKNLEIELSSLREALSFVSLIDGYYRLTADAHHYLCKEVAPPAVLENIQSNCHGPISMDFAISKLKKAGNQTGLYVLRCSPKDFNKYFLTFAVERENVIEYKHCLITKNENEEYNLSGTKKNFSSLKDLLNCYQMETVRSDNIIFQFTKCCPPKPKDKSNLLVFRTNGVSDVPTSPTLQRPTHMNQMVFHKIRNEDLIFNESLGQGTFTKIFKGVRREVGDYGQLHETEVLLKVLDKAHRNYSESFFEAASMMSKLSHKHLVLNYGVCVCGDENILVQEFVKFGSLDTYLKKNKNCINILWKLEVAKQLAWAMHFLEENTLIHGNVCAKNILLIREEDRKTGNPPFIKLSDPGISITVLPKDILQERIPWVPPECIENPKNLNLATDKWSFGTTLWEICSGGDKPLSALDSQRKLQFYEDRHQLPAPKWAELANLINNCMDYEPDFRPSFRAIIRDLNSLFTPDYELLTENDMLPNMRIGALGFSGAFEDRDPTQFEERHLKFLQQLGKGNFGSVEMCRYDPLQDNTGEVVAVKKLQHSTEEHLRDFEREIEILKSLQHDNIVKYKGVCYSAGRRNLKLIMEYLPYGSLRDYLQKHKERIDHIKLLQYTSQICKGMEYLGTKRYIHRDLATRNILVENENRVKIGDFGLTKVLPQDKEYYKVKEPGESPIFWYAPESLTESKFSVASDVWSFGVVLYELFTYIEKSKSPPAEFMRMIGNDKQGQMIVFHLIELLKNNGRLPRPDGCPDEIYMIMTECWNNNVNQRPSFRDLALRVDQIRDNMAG

| SMILES | JAK 1 (pKi) (JAK1) | JAK 2 (pKi) (JAK2) | Tyk 2 (pKi) (Tyk2) | Tall-1 (pIC50) [1, 2] | JAK 3 (pKi) (JAK3) | JAK3 (pKi)-JAK1 (pKi) (JAK3; [3]) | Ki (JAK1) [nM] | Ki (JAK2) [nM] | Ki (Tyk2) [nM] | IC50 [1, 4] [nM] | Ki (JAK3) [nM] | JAK3 (pKi)-JAK1 (pKi) (JAK3; [5]) | IC50 [1, 6] [nM] | Tall-1 (pIC50) [1, 7] |
| --- | --- | --- | --- | --- | --- | --- | --- | --- | --- | --- | --- | --- | --- | --- |
| C=CC(=O)N1C2CCC1CC(Oc1cc(-c3ccc(O)cc3)cc3[nH]ncc13)C2 (stereo not drawn) [Compound 10-2] | D (a pKi value between 7 and 8 (Ki between 100 nM and 10 nM)) | C (a pKi value between 8 and 9 (Ki between 10 nM and 1 nM)) | D (a pKi value between 7 and 8 (Ki between 100 nM and 10 nM)) | A (a pIC50 value≥7.5 (IC50≤32 nM)) | A (a pKi value≥10 (Ki≤0.1 nM)) | B (a value of 2.3 to 3) | – | – | – | – | – | – | – | – |
| C=CC(=O)N1CC(F)(COc2nc(-c3ccc(O)cc3)nc3[nH]ncc23)C1 [Compound 3-45] | – | – | – | – | – | – | > 100 | > 100 | > 100 | < 31.6 | 0.1 to 1 | A (a value of 3 or above) | – | – |
| CN(C)C/C=C/C(=O)N1CC(CSc2cc(-c3ccc(O)cc3)cc3[nH]ncc23)C1 [Compound 13-4] | E (a pKi value of 7 or below (Ki of 100 nM or above)) | D (a pKi value between 7 and 8 (Ki between 100 nM and 10 nM)) | E (a pKi value of 7 or below (Ki of 100 nM or above)) | B (a pIC50 value between 6.7 (included) and 7.5 (IC50 between 200 nM and 32 nM)) | A (a pKi value≥10 (Ki≤0.1 nM)) | A (a value of 3 or above) | – | – | – | – | – | – | – | – |
| C=CC(=O)N1CCC(C)(Nc2nc(-c3ccc(O)cc3)cc3[nH]ncc23)CC1 [Compound 7-13] | E (a pKi value of 7 or below (Ki of 100 nM or above)) | D (a pKi value between 7 and 8 (Ki between 100 nM and 10 nM)) | E (a pKi value of 7 or below (Ki of 100 nM or above)) | A (a pIC50 value≥7.5 (IC50≤32 nM)) | A (a pKi value≥10 (Ki≤0.1 nM)) | A (a value of 3 or above) | – | – | – | – | – | – | – | – |
| C=CC(=O)N1C[C@@H](C)O[C@@H](C(=O)Nc2cc(-c3ccc(O)cc3)cc3[nH]ncc23)C1 [Compound 12-61] | – | – | – | – | – | A (a value of 3 or above) | > 100 | > 100 | > 100 | – | < 0.1 | – | 31.6 to 200 | – |
| C=CC(=O)N1CCC(C)(Oc2cc(-c3ccc(O)cc3)cc3[nH]ncc23)C1 (stereo not drawn) [Compound 13-15] | E (a pKi value of 7 or below (Ki of 100 nM or above)) | D (a pKi value between 7 and 8 (Ki between 100 nM and 10 nM)) | E (a pKi value of 7 or below (Ki of 100 nM or above)) | B (a pIC50 value between 6.7 (included) and 7.5 (IC50 between 200 nM and 32 nM)) | B (a pKi value between 9 and 10 (Ki between 1 nM and 0.1 nM)) | A (a value of 3 or above) | – | – | – | – | – | – | – | – |
| C=CC(=O)N1CC(CN(C)c2cc(-c3ccc(O)c(F)c3)cc3[nH]ncc23)C1 [Compound 4-7] | E (a pKi value of 7 or below (Ki of 100 nM or above)) | E (a pKi value of 7 or below (Ki of 100 nM or above)) | E (a pKi value of 7 or below (Ki of 100 nM or above)) | – | C (a pKi value between 8 and 9 (Ki between 10 nM and 1 nM)) | – | – | – | – | – | – | B (a value of 2.3 to 3) | – | B (a pIC50 value between 6.7 (included) and 7.5 (IC50 between 200 nM and 32 nM)) |
| C=CC(=O)N1CC(Oc2cc(-c3ccc(O)c(Cl)c3)cc3[nH]ncc23)(C(F)F)C1 [Compound 5-21] | E (a pKi value of 7 or below (Ki of 100 nM or above)) | E (a pKi value of 7 or below (Ki of 100 nM or above)) | E (a pKi value of 7 or below (Ki of 100 nM or above)) | A (a pIC50 value≥7.5 (IC50≤32 nM)) | B (a pKi value between 9 and 10 (Ki between 1 nM and 0.1 nM)) | A (a value of 3 or above) | – | – | – | – | – | – | – | – |
| CN1CCC[C@H]1/C=C/C(=O)N1CC(COc2cc(-c3ccc(O)cc3)cc3[nH]ncc23)C1 [Compound 3-115] | – | – | – | – | – | – | > 100 | 0.1 to 1 | > 100 | 31.6 to 200 | 0.1 to 1 | A (a value of 3 or above) | – | – |
| C=CC(=O)N1CCC(Oc2cc(-c3ccc(O)cc3)nc3[nH]ncc23)CC1C (stereo not drawn) [Compound 13-12] | E (a pKi value of 7 or below (Ki of 100 nM or above)) | E (a pKi value of 7 or below (Ki of 100 nM or above)) | E (a pKi value of 7 or below (Ki of 100 nM or above)) | B (a pIC50 value between 6.7 (included) and 7.5 (IC50 between 200 nM and 32 nM)) | B (a pKi value between 9 and 10 (Ki between 1 nM and 0.1 nM)) | A (a value of 3 or above) | – | – | – | – | – | – | – | – |
| CN(C)C/C=C/C(=O)N1CC[C@H](Sc2cc(-c3ccc(O)cc3)cc3[nH]ncc23)C1 [Compound 12-1] | – | – | – | – | – | A (a value of 3 or above) | > 100 | 10 to 100 | > 100 | – | 0.1 to 1 | – | 31.6 to 200 | – |
| CN(C)C/C=C/C(=O)N1CC(F)(COc2cc(-c3ccc(O)c(F)c3)cc3[nH]ncc23)C1 [Compound 3-40] | – | – | – | – | – | – | 0.1 to 1 | 10 to 100 | > 100 | < 31.6 | < 0.1 | A (a value of 3 or above) | – | – |
| CN(C)C/C=C/C(=O)N1CC(F)(COc2cc(-c3ccc(O)cc3)nc3[nH]ncc23)C1 [Compound 3-89] | – | – | – | – | – | – | > 100 | > 100 | > 100 | 31.6 to 200 | < 0.1 | A (a value of 3 or above) | – | – |
| C=CC(=O)N1CC(CC)(COc2cc(-c3ccc(O)c(F)c3)nc3[nH]ncc23)C1 [Compound 3-70] | E (a pKi value of 7 or below (Ki of 100 nM or above)) | E (a pKi value of 7 or below (Ki of 100 nM or above)) | E (a pKi value of 7 or below (Ki of 100 nM or above)) | – | A (a pKi value≥10 (Ki≤0.1 nM)) | – | – | – | – | – | – | A (a value of 3 or above) | – | B (a pIC50 value between 6.7 (included) and 7.5 (IC50 between 200 nM and 32 nM)) |
